The first assay deals with human PD-L1 (Homo sapiens (Human), UniProt Q9NZQ7). Nature of the assay: Enzyme-Linked Immunosorbent Assay (ELISA), PD-1/PD-L1 binding. The following applies: PD-1/PD-L1 ELISA, human PD-L1 coated plates, Table 1. The method, boiled down:
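Competitive ELISA: human PD-1 […] (0.31 μg/mL) and serially diluted compounds (1:5) incubated 1 h at 37° C on wells coated with […] human PD-L1. Signal via streptavidin-HRP/TMB, stopped with 2 N H2SO4, measured as A450.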
For orientation: ELISA stands for enzyme-linked immunosorbent assay.
human PD-L1, sequence (Q9NZQ7 19-239): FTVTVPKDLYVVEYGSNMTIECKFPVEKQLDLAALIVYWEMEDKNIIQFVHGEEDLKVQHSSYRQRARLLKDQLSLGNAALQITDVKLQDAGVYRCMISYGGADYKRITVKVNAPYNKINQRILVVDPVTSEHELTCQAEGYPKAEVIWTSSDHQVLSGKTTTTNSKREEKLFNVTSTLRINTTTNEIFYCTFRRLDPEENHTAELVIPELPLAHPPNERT
As a reminder, the IC50 is the concentration at which inhibition is half-maximal. Higher therefore signals a need for much substance. In turn, `COc1cc(-c2cccc(-c3cccc(NC(=O)c4c[nH]c(=O)n(C)c4=O)c3C)c2C)cc(F)c1CN1CC(N)C1` [Example 1.227] registered an IC50 below 10 nM.
The same measure, in the same setting: the same measure for `COc1cc(-c2cccc(-c3cccc(Nc4nccc5nccnc45)c3C)c2C)cc(F)c1CNCC(=O)O` [Example 1.240]: below 10 nM; for `COc1cc(-c2cccc(-c3cccc(NC(=O)c4cccn(C)c4=O)c3C)c2C)cc(F)c1CNCC(C)(C)O` [Example 1.281]: below 10 nM.
Same read-out and setting: the value for `COc1cc(-c2cccc(-c3cccc(Nc4cccc5cncnc45)c3C)c2C)cc(F)c1CN1CC(C(=O)O)C1` [Example 1.246] was 10 to 1000 nM; that for `COc1cc(-c2cccc(-c3cccc(NC(=O)c4cncn(C)c4=O)c3C)c2C)cc(F)c1CNC1CCCC1` [Example 1.198] was below 10 nM.
Molecule `COc1cc(-c2cccc(-c3cccc(NC(=O)c4cccn(C)c4=O)c3C)c2C)cc(F)c1CNCCCC(=O)O` [Example 1.279] registered an IC50 below 10 nM.

Staying with this assay, now noted: human PD-1/PD-L1 ELISA, plates coated with human PD-L1.
On to `COc1cc(-c2cccc(-c3cccc(NC(=O)c4cncn(C)c4=O)c3C)c2C)cc(F)c1CNCc1c[nH]c(=O)[nH]c1=O` [Example 1.113], for which the IC50 is below 10 nM.
Same read-out and setting: the value for `COc1cc(-c2cccc(-c3cccc(NC(=O)c4cn(C)c(=O)n(C)c4=O)c3C)c2C)cc(F)c1CNCCN1CCCC1=O` [Example 1.118] was below 10 nM; that for `COc1cc(-c2cccc(-c3cccc(NC(=O)c4cn(C)c(=O)n(C)c4=O)c3C)c2F)cc(F)c1CN[C@@H]1CCOC[C@@H]1O` [Example 1.016] was below 10 nM.
On the same count and under the same terms, the value for `COc1cc(-c2cccc(-c3cccc(NC(=O)c4cn(C)c(=O)n(C)c4=O)c3F)c2C)cc(F)c1CNC[C@@H]1CCC(=O)N1` [Example 1.037] was below 10 nM; that for `COc1cc(-c2cccc(-c3cccc(Nc4nccc5c4C(=O)N(C)CC5)c3C)c2C)cc(F)c1CN[C@@H]1CCC[C@@H]1O` [Example 1.191] was below 10 nM; that for `COc1cc(-c2cccc(-c3cccc(NC(=O)c4cn(C)c(=O)n(C)c4=O)c3C)c2C)cc(F)c1CNCc1cn(C)c(=O)n(C)c1=O` [Example 1.146] was below 10 nM.
Same read-out and setting: the same measure for `COc1cc(-c2cccc(-c3cccc(Nc4nccc5nccnc45)c3C)c2F)cc(F)c1CNC[C@@H]1CCC(=O)N1` [Example 1.028]: 10 to 1000 nM.
For `COc1cc(-c2cccc(-c3cccc(NC(=O)c4cncn(C)c4=O)c3C)c2C)cc(F)c1CNCC1(O)CC1` [Example 1.140], the IC50 was below 10 nM.
Same read-out and setting: the same measure for `COc1cc(-c2cccc(-c3cccc(NC(=O)c4nn(C)c(=O)n(C)c4=O)c3C)c2C)cc(F)c1CNCc1c[nH]c(=O)[nH]c1=O` [Example 1.054]: below 10 nM; for `COc1cc(-c2cccc(-c3cccc(NC(=O)c4cn(C)c(=O)n(C)c4=O)c3C)c2C)cc(F)c1CN[C@H]1CNC(=O)C1` [Example 1.127]: below 10 nM.

Still in this assay, the particulars now being: plate-coated human PD-L1, biotinylated Human PD-1, absorbance at 450 nm.
`COc1cc(-c2cccc(-c3cccc(NC(=O)c4cn(C)c(=O)n(C)c4=O)c3C)c2Cl)cc(F)c1CNCC(C)(C)O` [Example 2.045]: the IC50 was below 10 nM.
Same read-out and setting: the same measure for `COc1cc(-c2cccc(-c3cccc(NC(=O)c4c[nH]c(=O)n(C)c4=O)c3Cl)c2Cl)cc(F)c1CN[C@H]1CCOC[C@H]1O` [Example 2.029]: below 10 nM; for `COc1cc(-c2cccc(-c3cccc(NC(=O)c4cn(C)c(=O)n(C)c4=O)c3C)c2C)cc(F)c1CN[C@H]1CCOC[C@H]1O` [Example 2.097]: below 10 nM.
The molecule `COc1cc(-c2cccc(-c3cccc(NC(=O)c4cn(C)c(=O)n(C)c4=O)c3C)c2Cl)cc(F)c1CN(C)CCO` [Example 2.058] showed an IC50 below 10 nM.
The molecule `COc1cc(-c2cccc(-c3cccc(Nc4nccc5nccnc45)c3C)c2Cl)cc(F)c1CN[C@@H]1COC[C@@H]1O` [Example 2.115] came in with an IC50 below 10 nM.
Still for that read-out and setting: the same measure for `COc1cc(-c2cccc(-c3cccc(NC(=O)c4cn(C)c(=O)n(C)c4=O)c3Cl)c2Cl)cc(F)c1CN1CCC(C)(C(=O)O)CC1` [Example 2.005]: below 10 nM; for `COc1cc(-c2cccc(-c3cccc(NC(=O)c4cn(C)c(=O)n(C)c4=O)c3C)c2Cl)cc(F)c1CNC1(C)CCOCC1` [Example 2.050]: below 10 nM.
